Laboratory results published in patent US9663473B2 (Actelion Pharmaceuticals Ltd, priority 2013, dated 2017).
pEC50: −log10 of the molar value. Structures can show the parent of a compound that is named as a salt.

What follows are compounds tested against T1, recombinant human ALX receptor (Homo sapiens, UniProt P25090) (assay: Intracellular calcium measurements (FLIPR), ALX receptor agonistic activity). Conditions: HEK293-hALXR-Gα16 cells, Fluo-4 calcium signal, normalized to WKYMVm 10 nM.
T1 construct: expressed in transfected cells; host or cells: HEK293 (HEK293-hALXR-Gα16)
T1 sequence (P25090 1-351): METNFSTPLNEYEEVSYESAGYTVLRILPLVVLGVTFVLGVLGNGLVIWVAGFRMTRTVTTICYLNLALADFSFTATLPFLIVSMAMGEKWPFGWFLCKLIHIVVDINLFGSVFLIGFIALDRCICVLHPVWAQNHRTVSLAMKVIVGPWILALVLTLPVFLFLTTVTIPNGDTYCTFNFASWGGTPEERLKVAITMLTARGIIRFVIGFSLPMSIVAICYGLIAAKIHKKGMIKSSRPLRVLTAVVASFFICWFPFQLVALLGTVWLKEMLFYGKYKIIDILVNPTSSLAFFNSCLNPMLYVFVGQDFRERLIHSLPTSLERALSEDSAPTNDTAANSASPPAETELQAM
Type: cell-based
How it was run: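 HEK293 cells co-expressing human ALX receptor and Gα16 were loaded with 1 μM Fluo-4 AM for 60 min at 37° C., then exposed to serially diluted compounds on FLIPR Tetra. Peak fluorescence above baseline (ex 488/em 540 nm) was normalized to 10 nM WKYMVm as high control.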

| SMILES | pEC50 |
| --- | --- |
| CCOc1ccccc1CNC(=O)N[C@H](Cc1ccc(OC)cc1)c1nc2ccccc2[nH]1 [Example 60, (R)-1-(1-(1H-Benzo[d]imidazol-2-yl)-2-(4-methoxyphenyl)ethyl)-3-(2-ethoxybenzyl)urea hydrochloride] | 6.79 |
| COc1ccc(C[C@@H](NC(=O)NCc2ccccc2CN2CCOCC2)c2nc3ccccc3[nH]2)cc1 [Example 62, (R)-1-(1-(1H-Benzo[d]imidazol-2-yl)-2-(4-methoxyphenyl)ethyl)-3-(2-(morpholinomethyl)benzyl)urea dihydrochloride] | 7.32 |
| COc1ccc(C[C@@H](NC(=O)NCCc2ccccc2C)c2nc3ccccc3[nH]2)cc1 [Example 63, (R)-1-(1-(1H-Benzo[d]imidazol-2-yl)-2-(4-methoxyphenyl)ethyl)-3-(2-methylphenethyl)urea hydrochloride] | 6.98 |
| COc1ccc(C[C@@H](NC(=O)NCCc2ccc(C)cc2)c2nc3ccccc3[nH]2)cc1 [Example 66, (R)-1-(1-(1H-Benzo[d]imidazol-2-yl)-2-(4-methoxyphenyl)ethyl)-3-(4-methylphenethyl)urea hydrochloride] | 6.36 |
| COc1ccc(C[C@@H](NC(=O)NCCc2ccccc2)c2nc3ccccc3[nH]2)cc1 [Example 67, (R)-1-(1-(1H-Benzo[d]imidazol-2-yl)-2-(4-methoxyphenyl)ethyl)-3-phenethylurea] | 6.38 |
| COCC(Cc1ccccc1)NC(=O)N[C@H](Cc1ccc(OC)cc1)c1nc2ccccc2[nH]1 (stereo partly drawn) [Example 70, 1-((R)-1-(1H-Benzo[d]imidazol-2-yl)-2-(4-methoxyphenyl)ethyl)-3-(1-methoxy-3-phenylpropan-2-yl)urea] | 7.77 |
| COc1ccc(C[C@@H](NC(=O)NC2CCN(C3CC3)CC2)c2nc3ccccc3[nH]2)cc1 [Example 71, (R)-1-(1-(1H-Benzo[d]imidazol-2-yl)-2-(4-methoxyphenyl)ethyl)-3-(1-cyclopropylpiperidin-4-yl)urea] | 7.28 |
| COc1ccc(CC(NC(=O)NC2CCC(CO)CC2)c2nc3ccccc3[nH]2)cc1 (stereo not shown) [Example 74, 1-(1-(1H-Benzo[d]imidazol-2-yl)-2-(4-methoxyphenyl)ethyl)-3-(4-(hydroxymethyl)cyclohexyl)urea] | 7.89 |
| COc1ccc(C[C@@H](NC(=O)NC2CCCC2)c2nc3ccccc3[nH]2)cc1 [Example 75, (R)-1-(1-(1H-Benzo[d]imidazol-2-yl)-2-(4-methoxyphenyl)ethyl)-3-cyclopentylurea] | 7.39 |
| COc1ccc(C[C@@H](NC(=O)N[C@H]2CC[C@H](O)CC2)c2nc3cc(C)ccc3[nH]2)cc1 [Example 83, 1-(trans-4-Hydroxycyclohexyl)-3-((R)-2-(4-methoxyphenyl)-1-(5-methyl-1H-benzo[d]imidazol-2-yl)ethyl)urea] | 8.77 |
| COc1ccc(C[C@@H](NC(=O)N[C@H]2CC[C@H](O)CC2)c2nc3cc(OC)ccc3[nH]2)cc1 [Example 84, 1-(trans-4-Hydroxycyclohexyl)-3-((R)-1-(5-methoxy-1H-benzo[d]imidazol-2-yl)-2-(4-methoxyphenyl)ethyl)urea] | 7.96 |
| COc1ccc(C[C@@H](NC(=O)N2CCCCC2)c2nc3ccccc3[nH]2)cc1 [Example 86, (R)—N-(1-(1H-Benzo[d]imidazol-2-yl)-2-(4-methoxyphenyl)ethyl)piperidine-1-carboxamide] | 6.40 |
| COc1ccc(C[C@@H](NC(=O)NC2CCN(Cc3ccccc3)CC2)c2nc3ccccc3[nH]2)cc1 [Example 88, (R)-1-(1-(1H-Benzo[d]imidazol-2-yl)-2-(4-methoxyphenyl)ethyl)-3-(1-benzylpiperidin-4-yl)urea] | 7.00 |
| COc1ccc(C[C@@H](NC(=O)NC2CN3CCC2CC3)c2nc3ccccc3[nH]2)cc1 (stereo partly drawn) [Example 89, 1-((R)-1-(1H-Benzo[d]imidazol-2-yl)-2-(4-methoxyphenyl)ethyl)-3-(quinuclidin-3-yl)urea] | 7.82 |
| COc1ccc(C[C@@H](NC(=O)N2CCCC2)c2nc3ccccc3[nH]2)cc1 [Example 91, (R)—N-(1-(1H-Benzo[d]imidazol-2-yl)-2-(4-methoxyphenyl)ethyl)pyrrolidine-1-carboxamide] | 6.25 |
| COc1ccc(C[C@@H](NC(=O)NC2CCN(C(=O)OC(C)(C)C)C2)c2nc3ccccc3[nH]2)cc1 (stereo partly drawn) [Example 93, tert-butyl 3-(3-((R)-1-(1H-Benzo[d]imidazol-2-yl)-2-(4-methoxyphenyl)ethyl)ureido)pyrrolidine-1-carboxylate] | 7.80 |
| COc1ccc(C[C@@H](NC(=O)NCCCCO)c2nc3ccccc3[nH]2)cc1 [Example 96, (R)-1-(1-(1H-Benzo[d]imidazol-2-yl)-2-(4-methoxyphenyl)ethyl)-3-(4-hydroxybutyl)urea] | 6.82 |
| CCC(CC)NC(=O)N[C@H](Cc1ccc(OC)cc1)c1nc2ccccc2[nH]1 [Example 97, (R)-1-(1-(1H-Benzo[d]imidazol-2-yl)-2-(4-methoxyphenyl)ethyl)-3-(pentan-3-yl)urea] | 6.91 |
| COc1ccc(C[C@@H](NC(=O)NCC2CCCCC2)c2nc3ccccc3[nH]2)cc1 [Example 98, (R)-1-(1-(1H-Benzo[d]imidazol-2-yl)-2-(4-methoxyphenyl)ethyl)-3-(cyclohexylmethyl)urea] | 6.36 |

The remaining compounds from weak to strong by pEC50, led by results:

| pEC50 | SMILES |
| --- | --- |
| 6.20 | COc1ccc(C[C@@H](NC(=O)NCCC#N)c2nc3ccccc3[nH]2)cc1 [Example 69, (R)-1-(1-(1H-Benzo[d]imidazol-2-yl)-2-(4-methoxyphenyl)ethyl)-3-(2-cyanoethyl)urea] |
| 6.24 | COc1ccc(C[C@@H](NC(=O)NCCO)c2nc3ccccc3[nH]2)cc1 [Example 94, (R)-1-(1-(1H-Benzo[d]imidazol-2-yl)-2-(4-methoxyphenyl)ethyl)-3-(2-hydroxyethyl)urea] |
| 6.54 | COc1ccc(C[C@@H](NC(=O)NCCC2CCCN2C)c2nc3ccccc3[nH]2)cc1 (stereo partly drawn) [Example 65, 1-((R)-1-(1H-Benzo[d]imidazol-2-yl)-2-(4-methoxyphenyl)ethyl)-3-(2-(1-methylpyrrolidin-2-yl)ethyl)urea dihydrochloride] |
| 6.62 | COc1ccc(C[C@@H](NC(=O)NCCc2cccc(Cl)c2)c2nc3ccccc3[nH]2)cc1 [Example 61, (R)-1-(1-(1H-Benzo[d]imidazol-2-yl)-2-(4-methoxyphenyl)ethyl)-3-(3-chlorophenethyl)urea hydrochloride] |
| 6.66 | COc1ccc(C[C@@H](NC(=O)NCCc2ccccc2F)c2nc3ccccc3[nH]2)cc1 [Example 68, (R)-1-(1-(1H-Benzo[d]imidazol-2-yl)-2-(4-methoxyphenyl)ethyl)-3-(2-fluorophenethyl)urea hydrochloride] |
| 6.71 | COc1ccc(C[C@@H](NC(=O)NCCCO)c2nc3ccccc3[nH]2)cc1 [Example 95, (R)-1-(1-(1H-Benzo[d]imidazol-2-yl)-2-(4-methoxyphenyl)ethyl)-3-(3-hydroxypropyl)urea] |
| 7.00 | CCOc1ccccc1CCNC(=O)N[C@H](Cc1ccc(OC)cc1)c1nc2ccccc2[nH]1 [Example 73, (R)-1-(1-(1H-Benzo[d]imidazol-2-yl)-2-(4-methoxyphenyl)ethyl)-3-(2-ethoxyphenethyl)urea] |
| 7.06 | COc1ccc(C[C@@H](NC(=O)NC2CCNC2)c2nc3ccccc3[nH]2)cc1 (stereo partly drawn) [Example 100, 1-((R)-1-(1H-Benzo[d]imidazol-2-yl)-2-(4-methoxyphenyl)ethyl)-3-(pyrrolidin-3-yl)urea] |
| 7.17 | COc1ccc(C[C@@H](NC(=O)NCC2CCc3ccccc32)c2nc3ccccc3[nH]2)cc1 (stereo partly drawn) [Example 72, 1-((R)-1-(1H-Benzo[d]imidazol-2-yl)-2-(4-methoxyphenyl)ethyl)-3-((2,3-dihydro-1H-inden-1-yl)methyl)urea] |
| 7.24 | COc1ccc(C[C@@H](NC(=O)NC2CCCCCC2)c2nc3ccccc3[nH]2)cc1 [Example 99, (R)-1-(1-(1H-Benzo[d]imidazol-2-yl)-2-(4-methoxyphenyl)ethyl)-3-cycloheptylurea] |
| 7.29 | COc1ccc(C[C@@H](NC(=O)NCc2cccnc2OCC(F)(F)F)c2nc3ccccc3[nH]2)cc1 [Example 64, (R)-1-(1-(1H-Benzo[d]imidazol-2-yl)-2-(4-methoxyphenyl)ethyl)-3-((2-(2,2,2-trifluoroethoxy)pyridin-3-yl)methyl)urea hydrochloride] |
| 7.32 | COc1ccc(C[C@@H](NC(=O)NCC2CCCC2)c2nc3ccccc3[nH]2)cc1 [Example 92, (R)-1-(1-(1H-Benzo[d]imidazol-2-yl)-2-(4-methoxyphenyl)ethyl)-3-(cyclopentylmethyl)urea] |
| 7.64 | COc1ccc(C[C@@H](NC(=O)NC2CCN(C3CCCCC3)CC2)c2nc3ccccc3[nH]2)cc1 [Example 90, (R)-1-(1-(1H-Benzo[d]imidazol-2-yl)-2-(4-methoxyphenyl)ethyl)-3-(1-cyclohexylpiperidin-4-yl)urea] |
| 7.85 | COc1ccc(C[C@@H](NC(=O)NC2CC(C)(C)NC(C)(C)C2)c2nc3ccccc3[nH]2)cc1 [Example 87, (R)-1-(1-(1H-Benzo[d]imidazol-2-yl)-2-(4-methoxyphenyl)ethyl)-3-(2,2,6,6-tetramethylpiperidin-4-yl)urea] |
| 8.80 | COc1ccc(C[C@@H](NC(=O)N[C@H]2CC[C@H](O)CC2)c2nc3cc(F)ccc3[nH]2)cc1 [Example 85, 1-((R)-1-(5-Fluoro-1H-benzo[d]imidazol-2-yl)-2-(4-methoxyphenyl)ethyl)-3-(trans-4-hydroxycyclohexyl)urea] |
